The results in this text go back to ChEMBL document CHEMBL3797183, “Rigid amphipathic nucleosides suppress reproduction of the tick-borne encephalitis virus” (Medchemcomm, 2016).

Structures are written as SMILES.

Series [1] has as its system Tick-borne encephalitis virus. Nature of the series: Antiviral activity against Tick-borne encephalitis virus Absettarov infected in PEK cells assessed as reduction in viral plaque formation incubated for 1 hr measured after 6 days by gentian violet staining. Format: functional, cell-based.
Series [2] has as its system Tick-borne encephalitis virus. Nature of the series: Antiviral activity against Tick-borne encephalitis virus Absettarov infected in PEK cells assessed as reduction in viral plaque formation compounds preincubated with cells for 1 hr followed by addition of virus with subsequent incubation of 1 hr by gentian violet staining. Format: functional, cell-based.
Series [3] in a line: Cytotoxicity against PEK cells after 7 days. The settings on record: pig. Format: cell-based, Sus scrofa.
The subject of series [4] is Tick-borne encephalitis virus. Nature of the series: Antiviral activity against Tick-borne encephalitis virus Absettarov infected in PEK cells assessed as reduction in viral plaque formation compounds preincubated with virus for 1 hr followed by addition of cells with subsequent incubation of 1 hr measured after 6 days by gentian violet staining. Format: functional, cell-based.

Series [5] is described as follows: Cytotoxicity against PEK cells after 24 hrs. Format: cell-based, Sus scrofa. The settings on record: pig.
The next series concerns Hepatitis C virus. Kind of series: Antiviral activity against HCV JFH-1 infected in human Huh7.5 cells treated for 10 mins measured after 72 hrs by immunocytochemical assay. Format: functional, organism-based, Hepacivirus hominis. The following applies: JFH-1, Huh-7.
In a further series the test system is Human alphaherpesvirus 2. Kind of series: Antiviral activity against HSV2 186 infected in African green monkey Vero cells treated for 10 mins measured after 1 to 2 days by crystal violet staining-based assay. Format: functional, cell-based. The following applies: Human alphaherpesvirus 2, strain 186, Vero.
For series [6], the system named is Influenza A virus. Nature of the series: Antiviral activity against Influenza virus A/PR/8/34 (H1N1) infected in MDCK cells treated for 10 mins measured after 1 hr by neutral red or crystal violet staining-based assay. Format: functional, organism-based. The settings on record: A/Puerto Rico/8/1934(H1N1).
Series [7] can be described thus: Antiviral activity against Influenza virus A/Aichi/2/68 (H3N2) infected in MDCK cells treated for 10 mins measured after 1 hr by neutral red or crystal violet staining-based assay. Format: functional, cell-based, Influenza A virus (A/Aichi/2/1968(H3N2)).
The next series has as its system Sindbis virus. Nature of the series: Antiviral activity against Sindbis virus infected in African green monkey Vero cells treated for 10 mins measured after 1 to 2 days by crystal violet staining-based assay. Format: functional, organism-based.
In series [8] the test system is Vesicular stomatitis virus. Nature of the series: Antiviral activity against VSV infected in African green monkey Vero cells treated for 10 mins measured after 1 to 2 days by crystal violet staining-based assay. Format: functional, organism-based.
Series [9] is described as follows: Antiviral activity against Influenza virus A/USSR/90/77 (H1N1) infected in MDCK cells treated for 10 mins measured after 1 hr by neutral red or crystal violet staining-based assay. Format: functional, cell-based, Influenza A virus (A/USSR/90/1977(H1N1)).
The test system of a further series is Human alphaherpesvirus 1. Nature of the series: Antiviral activity against HSV1 KOS infected in African green monkey Vero cells treated for 10 mins measured after 1 to 2 days by crystal violet staining-based assay. Format: functional, organism-based. The following applies: Human alphaherpesvirus 1, KOS.
The test system of series [10] is Influenza A virus. Kind of series: Antiviral activity against Influenza virus A/PC/1/73 (H3N2) infected in MDCK cells treated for 10 mins measured after 1 hr by neutral red or crystal violet staining-based assay. Format: functional, organism-based.
Series [11] has as its system Tick-borne encephalitis virus. Kind of series: Antiviral activity against 2.2x10^5 PFU Tick-borne encephalitis virus Absettarov infected in PEK cells assessed as inhibition of viral titer at 200 EC50 for simultaneous addition of compound/cells/virus incubated for 1 hr measured after 6 days by gentian violet staining. Format: functional.
Series [12] deals with Tick-borne encephalitis virus. Nature of the series: Antiviral activity against 2.2x10^2 PFU Tick-borne encephalitis virus Absettarov infected in PEK cells assessed as inhibition of viral titer at 200 EC50 for simultaneous addition of compound/cells/virus incubated for 1 hr measured after 6 days by gentian violet staining. Format: functional.
For series [13], the system named is Tick-borne encephalitis virus. Nature of the series: Antiviral activity against 22 PFU Tick-borne encephalitis virus Absettarov infected in PEK cells assessed as inhibition of viral titer at 200 EC50 for simultaneous addition of compound/cells/virus incubated for 1 hr measured after 6 days by gentian violet staining. Format: functional.
Series [14] in a line: Cytotoxicity against PEK cells assessed as cytopathic effect at 50 uM after 7 days relative to control. Format: cell-based, Sus scrofa. The following applies: pig, 168 h.
Series [15] deals with Tick-borne encephalitis virus. Kind of series: Antiviral activity against 2 PFU Tick-borne encephalitis virus Absettarov infected in PEK cells assessed as inhibition of viral titer at 200 EC50 for simultaneous addition of compound/cells/virus incubated for 1 hr measured after 6 days by gentian violet staining. Format: functional.
Series [16] concerns Tick-borne encephalitis virus. Nature of the series: Antiviral activity against 2.2x10^3 PFU Tick-borne encephalitis virus Absettarov infected in PEK cells assessed as inhibition of viral titer at 200 EC50 for simultaneous addition of compound/cells/virus incubated for 1 hr measured after 6 days by gentian violet staining. Format: functional.
Series [17] concerns Tick-borne encephalitis virus. Kind of series: Antiviral activity against 2.2x10^4 PFU Tick-borne encephalitis virus Absettarov infected in PEK cells assessed as inhibition of viral titer at 200 EC50 for simultaneous addition of compound/cells/virus incubated for 1 hr measured after 6 days by gentian violet staining. Format: functional.

In the case of `O=c1[nH]c(=O)n([C@H]2C[C@H](O)[C@@H](CO)O2)cc1C#Cc1ccc2ccc3cccc4ccc1c2c34`, the half-maximal effective concentration (EC50) in series [1] amounted to 980 nM; in [2], 42000 nM; in [4], 600 nM. Besides, the CC50 at 168 h in series [3] was more than 50000 nM. The compound further displayed a CC50 at 24 h in [5] of more than 50000 nM.
As to `O=c1[nH]c(=O)n([C@@H]2O[C@H](CO)[C@@H](O)[C@@H]2O)cc1C#Cc1ccc2c3cccc4cccc(c5cccc1c52)c43`, the EC50 in series [1] is 18 nM; in series [2], 2700 nM; in series [4], 40 nM. The IC50 (with Hepatitis C virus; in the series with Human alphaherpesvirus 2; with Influenza A virus [6]; in [7]; with Sindbis virus; in [8]) was 2 nM in each case. Besides, the IC50 (in series [9]; in the series with Human alphaherpesvirus 1; in the series with Influenza A virus [10]) was 2 nM each time. Further, in series [3], the midpoint of cytotoxicity, the CC50 at 168 h, lay at 4400 nM. Also, the CC50 at 24 h in [5] was more than 50000 nM.
As for `O=c1[nH]c(=O)n([C@H]2C[C@H](O)[C@@H](CO)O2)cc1C#CCOCc1ccc2c3cccc4cccc(c5cccc1c52)c43`, the “inhibition (INH)” value is reported as 99.9965% in series [11]; 100% in series [12]; 100% in series [13]; 100% in [15]; 100% in series [16]; 99.9988% in [17]. Further, the values for the EC50 in series [1] and in [2] were 500 nM and more than 50000 nM, respectively. The CC50 at 168 h in [3] is more than 50000 nM. In series [5], this compound registered a CC50 at 24 h of more than 50000 nM. Moreover, the Activity in series [14] is recorded as 25%.
Regarding `O=c1[nH]c(=O)n([C@H]2C[C@H](O)[C@@H](CO)O2)cc1C#Cc1ccc2c3cccc4cccc(c5cccc1c52)c43`, the “inhibition (INH)” value came to 99.9995% in series [11]; 100% in [12]; 100% in series [13]; 100% in series [15]; 100% in [16]; 99.9988% in series [17]. For the same compound, the EC50 in series [1] turned out to be 24 nM; in series [2] it was 1560 nM; in series [4], 40 nM. In addition, the IC50 (in the series on Hepatitis C virus; in the series on Human alphaherpesvirus 2; with Influenza A virus [6]; in series [7]; in the series on Sindbis virus; in series [8]) was 2 nM throughout. The IC50 (in series [9]; in the series with Human alphaherpesvirus 1; in the series with Influenza A virus [10]) was 2 nM in each case. Moreover, in series [3], the CC50 at 168 h was more than 50000 nM. The compound further showed a CC50 at 24 h in [5] of more than 50000 nM. Besides, the Activity in series [14] turned out to be 25%.
